Source: patent publication US20240270762A1, “PENICILLIN-BINDING PROTEIN INHIBITORS” (priority 2021, published 2024)
Values after ≈ are worked out from the molar mass of the structure shown. Like-named read-outs stand apart in the source and are kept apart here.

Experiments:
[1] = biological target: T1, PBP3 from Pseudomonas aeruginosa (PAO1) (Pseudomonas aeruginosa, UniProt G3XD46); test: Bocillin-FL fluorescence polarization competition binding, P. aeruginosa PBP3; conditions: Binding affinity to P. aeruginosa PBP3; fluorescence polarization competition binding assay using Bocillin-FL; read-out: P. aeruginosa PBP3 Potency
T1 construct: made in house
T1 sequence (G3XD46 whole entry): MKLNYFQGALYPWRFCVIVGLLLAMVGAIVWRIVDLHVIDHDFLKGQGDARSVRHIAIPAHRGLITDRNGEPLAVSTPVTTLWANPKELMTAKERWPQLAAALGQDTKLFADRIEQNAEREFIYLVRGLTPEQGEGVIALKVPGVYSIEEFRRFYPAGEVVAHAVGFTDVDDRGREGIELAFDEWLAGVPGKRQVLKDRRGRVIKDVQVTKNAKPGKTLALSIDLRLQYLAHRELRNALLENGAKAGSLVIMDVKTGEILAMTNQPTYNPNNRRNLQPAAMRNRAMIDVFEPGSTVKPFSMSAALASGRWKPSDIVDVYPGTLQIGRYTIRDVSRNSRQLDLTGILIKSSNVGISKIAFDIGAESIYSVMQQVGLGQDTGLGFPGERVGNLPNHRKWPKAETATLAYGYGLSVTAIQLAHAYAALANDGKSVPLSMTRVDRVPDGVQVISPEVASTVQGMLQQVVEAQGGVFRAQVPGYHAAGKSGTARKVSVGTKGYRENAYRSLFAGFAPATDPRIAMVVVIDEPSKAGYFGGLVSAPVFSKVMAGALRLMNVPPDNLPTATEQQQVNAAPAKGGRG
How it was run: (§1)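 Purified PBPs pre-incubated with inhibitor (E. coli PBP3 1.5 μM, 30 min; P. aeruginosa PBP3 0.75 μM, A. baumannii PBP1a 1 μM and PBP3 0.2 μM, 15 min), then Bocillin-FL 0.1 μM (0.05 μM for PBP1a) added; FP read up to 60 min. EC50 = concentration halving bound Bocillin-FL.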

[2] = test system: N. gonorrhoeae WHO Z; test: Liquid broth MIC in Fastidious broth; conditions: Neisseria gonorrhoeae
[3] = test system: A. baumannii CDC-0036; test: microbe, parasite or virus in culture; assay type: cell-based; conditions: Acinetobacter baumannii, CDC0036, read-out: MIC, A. baumannii CDC-0036
[4] = biological target: T2, PBP3 from Escherichia coli (K-12) (Escherichia coli, UniProt P0AD68); test: Bocillin-FL fluorescence polarization competition binding, E. coli PBP3
T2 construct: made in house
T2 sequence (P0AD68 1-577): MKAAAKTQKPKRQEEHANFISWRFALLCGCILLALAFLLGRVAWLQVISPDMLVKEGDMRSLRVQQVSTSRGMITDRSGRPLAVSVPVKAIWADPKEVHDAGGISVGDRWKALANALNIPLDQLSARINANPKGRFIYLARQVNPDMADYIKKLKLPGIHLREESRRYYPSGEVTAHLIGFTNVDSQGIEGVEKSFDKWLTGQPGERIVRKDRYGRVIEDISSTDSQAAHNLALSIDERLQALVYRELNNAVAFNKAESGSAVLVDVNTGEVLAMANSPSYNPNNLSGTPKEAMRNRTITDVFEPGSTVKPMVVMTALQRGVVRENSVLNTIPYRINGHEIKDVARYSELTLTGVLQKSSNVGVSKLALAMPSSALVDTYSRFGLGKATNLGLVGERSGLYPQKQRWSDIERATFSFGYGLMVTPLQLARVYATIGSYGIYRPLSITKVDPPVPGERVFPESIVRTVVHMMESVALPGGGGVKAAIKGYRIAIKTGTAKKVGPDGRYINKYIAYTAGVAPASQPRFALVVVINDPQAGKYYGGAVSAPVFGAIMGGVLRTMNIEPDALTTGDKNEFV
How it was run: as §1

[5] = test system: A. baumannii CDC-0033; test: microbe, parasite or virus in culture; assay type: cell-based; conditions: Acinetobacter baumannii, CDC0033, read-out: MIC, A. baumannii CDC-0033
[6] = test system: N. gonorrhoeae MS11; test: Liquid broth MIC in Fastidious broth; conditions: Neisseria gonorrhoeae
[7] = test system: P. aeruginosa CDC-0054; test: microbe, parasite or virus in culture; assay type: cell-based; conditions: Pseudomonas aeruginosa, CDC0054, read-out: Minimum inhibitory concentration, P. aeruginosa CDC-0054
[8] = test system: P. aeruginosa CDC-0095; test: microbe, parasite or virus in culture; assay type: cell-based; conditions: Pseudomonas aeruginosa, CDC0095, read-out: Minimum inhibitory concentration, P. aeruginosa CDC-0095
[9] = test system: N. gonorrhoeae FA1090; test: Liquid broth MIC in Fastidious broth; conditions: Neisseria gonorrhoeae
[10] = test system: A. baumannii ATCC 17978; test: microbe, parasite or virus in culture; assay type: cell-based; conditions: Acinetobacter baumannii, ATCC17978, read-out: MIC, A. baumannii ATCC 17978
[11] = test system: P. aeruginosa CDC-0110; test: microbe, parasite or virus in culture; assay type: cell-based; conditions: Pseudomonas aeruginosa, CDC0110, read-out: Minimum inhibitory concentration, P. aeruginosa CDC-0110
[12] = test system: B. humptydooensis ATCC BAA-2767; test: microbe, parasite or virus in culture; assay type: cell-based; conditions: Burkholderia humptydooensis, ATCCBAA2767, read-out: Minimum inhibitory concentration (MIC), B. humptydooensis ATCC BAA-2767
[13] = test system: N. gonorrhoeae WHO K; test: Liquid broth MIC in Fastidious broth; conditions: Neisseria gonorrhoeae
[14] = test system: N. gonorrhoeae WHO L; test: Liquid broth MIC in Fastidious broth; conditions: Neisseria gonorrhoeae
[15] = test system: P. aeruginosa ATCC 27853; test: microbe, parasite or virus in culture; assay type: cell-based; conditions: Pseudomonas aeruginosa, ATCC27853, read-out: Minimum inhibitory concentration, P. aeruginosa ATCC 27853
[16] = read-out: Minimum Inhibitory Concentration, WHO Z
[17] = MS11, read-out: Minimum Inhibitory Concentration, MS11
[18] = FA1090, read-out: Minimum Inhibitory Concentration, FA 1090
[19] = read-out: Minimum Inhibitory Concentration, WHO K
[20] = read-out: Minimum Inhibitory Concentration, WHO L
[21] = read-out: Minimum Inhibitory Concentration (MIC), N. gonorrhoeae WHO Z
[22] = MS11, read-out: Minimum Inhibitory Concentration (MIC), N. gonorrhoeae MS11
[23] = FA1090, read-out: Minimum Inhibitory Concentration (MIC), N. gonorrhoeae FA 1090
[24] = read-out: Minimum Inhibitory Concentration (MIC), N. gonorrhoeae WHO K
[25] = read-out: Minimum Inhibitory Concentration (MIC), N. gonorrhoeae WHO L

| Structure (SMILES) | IC50 [1] | MIC [2, 16] | MIC [3] | EC50 [4] | MIC [5] | MIC [6, 17] | MIC [7] | MIC [8] | MIC [9, 18] | MIC [10] | MIC [11] | MIC [12] | MIC [13, 19] | MIC [14, 20] | MIC [15] | MIC [2, 21] | MIC [6, 22] | MIC [9, 23] | MIC [13, 24] | MIC [14, 25] |
| --- | --- | --- | --- | --- | --- | --- | --- | --- | --- | --- | --- | --- | --- | --- | --- | --- | --- | --- | --- | --- |
| O=C(NCCCS(=O)(=O)N1CCN(C(=O)NC(C(=O)N[C@H]2Cc3ccc(F)c(C(=O)O)c3OB2O)c2cc(F)c(O)c(O)c2Cl)C1=O)Nc1ccc(O)cc1 (stereo partly drawn) [Example 276, (3R)-3-(2-(2-chloro-5-fluoro-3,4-dihydroxyphenyl)-2-(3-((3-(3-(4-hydroxyphenyl)ureido)propyl)sulfonyl)-2-oxoimidazolidine-1-carboxamido)acetamido)-7-fluoro-2-hydroxy-3,4-dihydro-2H-benzo[e][1,2]oxaborinine-8-carboxylic acid] | < 10 µM | 4 to 8 µg/mL (≈ 4.93 to 9.87 µM) | 2 to 4 µg/mL (≈ 2.47 to 4.93 µM) | < 10 µM | 8 to 16 µg/mL (≈ 9.87 to 19.7 µM) | 16 to 32 µg/mL (≈ 19.7 to 39.5 µM) | 8 to 16 µg/mL (≈ 9.87 to 19.7 µM) | 8 to 16 µg/mL (≈ 9.87 to 19.7 µM) | 1 to 2 µg/mL (≈ 1.23 to 2.47 µM) | < 1 µg/mL | 2 to 4 µg/mL (≈ 2.47 to 4.93 µM) | 32 to 64 µg/mL (≈ 39.5 to 78.9 µM) | > 64 µg/mL | > 64 µg/mL | 2 to 4 µg/mL (≈ 2.47 to 4.93 µM) | – | – | – | – | – |
| O=C(NCCS(=O)(=O)N1CCN(C(=O)N[C@@H](C(=O)N[C@H]2Cc3ccc(F)c(C(=O)O)c3OB2O)c2cc(F)c(O)c(O)c2Cl)C1=O)c1nccs1 [Example 264, (R)-3-((R)-2-(2-chloro-5-fluoro-3,4-dihydroxyphenyl)-2-(2-oxo-3-((2-(thiazole-2-carboxamido)ethyl)sulfonyl)imidazolidine-1-carboxamido)acetamido)-7-fluoro-2-hydroxy-3,4-dihydro-2H-benzo[e][1,2]oxaborinine-8-carboxylic acid] | < 10 µM | 4 to 8 µg/mL (≈ 5.18 to 10.4 µM) | < 1 µg/mL | < 10 µM | < 1 µg/mL | 16 to 32 µg/mL (≈ 20.7 to 41.4 µM) | < 1 µg/mL | 2 to 4 µg/mL (≈ 2.59 to 5.18 µM) | 1 to 2 µg/mL (≈ 1.29 to 2.59 µM) | < 1 µg/mL | < 1 µg/mL | 2 to 4 µg/mL (≈ 2.59 to 5.18 µM) | 16 to 32 µg/mL (≈ 20.7 to 41.4 µM) | > 64 µg/mL | < 1 µg/mL | – | – | – | – | – |
| O=C(NCCN1CCN(C(=O)NC(C(=O)N[C@H]2Cc3ccc(F)c(C(=O)O)c3OB2O)c2cc(F)c(O)c(O)c2Cl)C1=O)Nc1cccc(O)c1 (stereo partly drawn) [Example 249, (3R)-3-(2-(2-chloro-5-fluoro-3,4-dihydroxyphenyl)-2-(3-(2-(3-(3-hydroxyphenyl)ureido)ethyl)-2-oxoimidazolidine-1-carboxamido)acetamido)-7-fluoro-2-hydroxy-3,4-dihydro-2H-benzo[e][1,2]oxaborinine-8-carboxylic acid] | < 10 µM | 16 to 32 µg/mL (≈ 21.8 to 43.7 µM) | 2 to 4 µg/mL (≈ 2.73 to 5.46 µM) | < 10 µM | 2 to 4 µg/mL (≈ 2.73 to 5.46 µM) | 16 to 32 µg/mL (≈ 21.8 to 43.7 µM) | 2 to 4 µg/mL (≈ 2.73 to 5.46 µM) | 32 to 64 µg/mL (≈ 43.7 to 87.3 µM) | 1 to 2 µg/mL (≈ 1.36 to 2.73 µM) | < 1 µg/mL | < 1 µg/mL | < 1 µg/mL | > 64 µg/mL | > 64 µg/mL | 2 to 4 µg/mL (≈ 2.73 to 5.46 µM) | – | – | – | – | – |
| O=C(NCCCN1CCN(C(=O)N[C@@H](C(=O)N[C@H]2Cc3ccc(F)c(C(=O)O)c3OB2O)c2cc(F)c(O)c(O)c2Cl)C1=O)c1cccc(O)c1 [Example 255, (R)-3-((R)-2-(2-chloro-5-fluoro-3,4-dihydroxyphenyl)-2-(3-(3-(3-hydroxybenzamido)propyl)-2-oxoimidazolidine-1-carboxamido)acetamido)-7-fluoro-2-hydroxy-3,4-dihydro-2H-benzo[e][1,2]oxaborinine-8-carboxylic acid] | < 10 µM | 16 to 32 µg/mL (≈ 21.9 to 43.7 µM) | < 1 µg/mL | < 10 µM | 2 to 4 µg/mL (≈ 2.73 to 5.47 µM) | 16 to 32 µg/mL (≈ 21.9 to 43.7 µM) | < 1 µg/mL | 2 to 4 µg/mL (≈ 2.73 to 5.47 µM) | 1 to 2 µg/mL (≈ 1.37 to 2.73 µM) | < 1 µg/mL | < 1 µg/mL | < 1 µg/mL | > 64 µg/mL | > 64 µg/mL | < 1 µg/mL | – | – | – | – | – |
| O=C(NCCN1CCN(C(=O)NC(C(=O)N[C@H]2Cc3ccc(F)c(C(=O)O)c3OB2O)c2cc(F)c(O)c(O)c2Cl)C1=O)Nc1ccncc1 (stereo partly drawn) [Example 250, (3R)-3-(2-(2-chloro-5-fluoro-3,4-dihydroxyphenyl)-2-(2-oxo-3-(2-(3-(pyridin-4-yl)ureido)ethyl)imidazolidine-1-carboxamido)acetamido)-7-fluoro-2-hydroxy-3,4-dihydro-2H-benzo[e][1,2]oxaborinine-8-carboxylic acid] | < 10 µM | > 64 µg/mL | 2 to 4 µg/mL (≈ 2.79 to 5.57 µM) | < 10 µM | 2 to 4 µg/mL (≈ 2.79 to 5.57 µM) | 16 to 32 µg/mL (≈ 22.3 to 44.6 µM) | 8 to 16 µg/mL (≈ 11.1 to 22.3 µM) | 32 to 64 µg/mL (≈ 44.6 to 89.2 µM) | 4 to 8 µg/mL (≈ 5.57 to 11.1 µM) | < 1 µg/mL | 2 to 4 µg/mL (≈ 2.79 to 5.57 µM) | < 1 µg/mL | > 64 µg/mL | > 64 µg/mL | 2 to 4 µg/mL (≈ 2.79 to 5.57 µM) | – | – | – | – | – |
| O=C(NCCCN1CCN(C(=O)N[C@H](C(=O)N[C@H]2Cc3ccc(F)c(C(=O)O)c3OB2O)c2cc(F)c(O)c(O)c2Cl)C1=O)c1ccccc1 [Example 252, (R)-3-((S)-2-(3-(3-benzamidopropyl)-2-oxoimidazolidine-1-carboxamido)-2-(2-chloro-5-fluoro-3,4-dihydroxyphenyl)acetamido)-7-fluoro-2-hydroxy-3,4-dihydro-2H-benzo[e][1,2]oxaborinine-8-carboxylic acid] | > 250 µM | > 64 µg/mL | > 128 µg/mL | > 250 µM | > 128 µg/mL | > 64 µg/mL | > 128 µg/mL | > 128 µg/mL | > 64 µg/mL | 8 to 16 µg/mL (≈ 11.2 to 22.4 µM) | > 128 µg/mL | > 128 µg/mL | > 64 µg/mL | > 64 µg/mL | > 128 µg/mL | – | – | – | – | – |
| O=C(NCCN1CCN(C(=O)NC(C(=O)N[C@H]2Cc3ccc(F)c(C(=O)O)c3OB2O)c2cc(F)c(O)c(O)c2Cl)C1=O)c1ccncc1 (stereo partly drawn) [Example 245, (3R)-3-(2-(2-chloro-5-fluoro-3,4-dihydroxyphenyl)-2-(3-(2-(isonicotinamido)ethyl)-2-oxoimidazolidine-1-carboxamido)acetamido)-7-fluoro-2-hydroxy-3,4-dihydro-2H-benzo[e][1,2]oxaborinine-8-carboxylic acid] | < 10 µM | – | 2 to 4 µg/mL (≈ 2.85 to 5.69 µM) | 10 to 50 µM | 8 to 16 µg/mL (≈ 11.4 to 22.8 µM) | – | 2 to 4 µg/mL (≈ 2.85 to 5.69 µM) | 2 to 4 µg/mL (≈ 2.85 to 5.69 µM) | – | < 1 µg/mL | < 1 µg/mL | < 1 µg/mL | – | – | 2 to 4 µg/mL (≈ 2.85 to 5.69 µM) | > 64 µg/mL | 16 to 32 µg/mL (≈ 22.8 to 45.5 µM) | 4 to 8 µg/mL (≈ 5.69 to 11.4 µM) | > 64 µg/mL | > 64 µg/mL |
| O=C(NCCCN1CCN(C(=O)NC(C(=O)N[C@H]2Cc3ccc(F)c(C(=O)O)c3OB2O)c2cc(F)c(O)c(O)c2Cl)C(=O)C1=O)c1ccccc1 (stereo partly drawn) [Example 202, (3R)-3-(2-(4-(3-benzamidopropyl)-2,3-dioxopiperazine-1-carboxamido)-2-(2-chloro-5-fluoro-3,4-dihydroxyphenyl)acetamido)-7-fluoro-2-hydroxy-3,4-dihydro-2H-benzo[e][1,2]oxaborinine-8-carboxylic acid] | < 10 µM | – | 2 to 4 µg/mL (≈ 2.69 to 5.38 µM) | < 10 µM | 8 to 16 µg/mL (≈ 10.8 to 21.5 µM) | – | < 1 µg/mL | 2 to 4 µg/mL (≈ 2.69 to 5.38 µM) | – | < 1 µg/mL | < 1 µg/mL | < 1 µg/mL | – | – | 2 to 4 µg/mL (≈ 2.69 to 5.38 µM) | > 64 µg/mL | 16 to 32 µg/mL (≈ 21.5 to 43 µM) | 4 to 8 µg/mL (≈ 5.38 to 10.8 µM) | > 64 µg/mL | > 64 µg/mL |
